Our source for the IC50, Activity and inhibition values is ChEMBL document CHEMBL4177665, “Inhibitory effect of moschamine isolated from Carthamus tinctorius on LPS-induced inflammatory mediators via AP-1 and STAT1/3 inactivation in RAW 264.7 macrophages” (Bioorg Med Chem Lett, 2017).

Active and inactive are the calls of the source. No cut-off for these calls is given here.

In data set [1] the test system is RAW264.7. The data set is described as follows: Antiinflammatory activity in mouse RAW264.7 cells assessed as inhibition of LPS-induced nitric oxide production measured after 24 hrs by Griess assay. Format: functional, cell-based. The note with it: RAW264.7, 24 h.
In data set [2] the test system is RAW264.7. The data set is described as follows: Cytotoxicity against mouse RAW264.7 cells assessed as reduction in cell viability up to 200 uM measured after 24 hrs in absence of LPS by MTT assay. Format: cell-based. The conditions noted are these: raw264.7, 24 h.
Data set [3] deals with RAW264.7. The experiment in a line: Cytotoxicity against mouse RAW264.7 cells assessed as reduction in cell viability up to 200 uM measured after 24 hrs in presence of LPS by MTT assay. The note with it: raw264.7, 24 h. The data set is classed as cell-based. On the technique in general: Tetrazolium dyes change colour on reduction, which living cells bring about.
Data set [4] has as its system RAW264.7. The experiment in a line: Antiinflammatory activity in mouse RAW264.7 cells assessed as inhibition of LPS-induced PGE2 production pretreated for 1 hr followed by LPS addition measured after 24 hrs. Format: functional, cell-based.
Data set [5] relates to RAW264.7. The data set is described as follows: Inhibition of LPS-induced JNK phosphorylation in mouse RAW264.7 cells at 50 uM pretreated for 1 hr followed by LPS-stimulation measured up to 30 mins by Western blot analysis. The data set is classed as cell-based. For orientation: A western blot detects proteins with antibodies after separation by electrophoresis.
In data set [6] the test system is RAW264.7. The experiment in a line: Inhibition of LPS-induced c-JUN expression in mouse RAW264.7 cells at 50 uM pretreated for 1 hr followed by LPS-stimulation measured up to 30 mins by Western blot analysis. The data set is classed as functional, cell-based.
Data set [7] deals with RAW264.7. The experiment in a line: Antiinflammatory activity in mouse RAW264.7 cells assessed as inhibition of LPS-stimulated mPGES1 mRNA expression at 50 uM measured up to 12 hrs by SYBR green dye based RT-PCR analysis. Format: functional, cell-based.
Data set [8] relates to RAW264.7. The experiment in a line: Antiinflammatory activity in mouse RAW264.7 cells assessed as inhibition of LPS-stimulated IL-6 production in mouse RAW264.7 cells at 50 uM pretreated for 1 hr followed by LPS addition measured after 24 hrs by enzyme immunoassay relative to control. Format: functional.
The target in data set [9] is Tyrosine-protein kinase JAK1 (Mus musculus) (UniProt P52332). The experiment in a line: Inhibition of JAK1 in LPS-stimulated mouse RAW264.7 cells assessed as reduction in STAT1 phosphorylation at Y701 residue pretreated for 1 hr followed by LPS-stimulation by Western blot analysis. The data set is classed as cell-based.
Chain of Tyrosine-protein kinase JAK1 (Mus musculus) (P52332 whole entry): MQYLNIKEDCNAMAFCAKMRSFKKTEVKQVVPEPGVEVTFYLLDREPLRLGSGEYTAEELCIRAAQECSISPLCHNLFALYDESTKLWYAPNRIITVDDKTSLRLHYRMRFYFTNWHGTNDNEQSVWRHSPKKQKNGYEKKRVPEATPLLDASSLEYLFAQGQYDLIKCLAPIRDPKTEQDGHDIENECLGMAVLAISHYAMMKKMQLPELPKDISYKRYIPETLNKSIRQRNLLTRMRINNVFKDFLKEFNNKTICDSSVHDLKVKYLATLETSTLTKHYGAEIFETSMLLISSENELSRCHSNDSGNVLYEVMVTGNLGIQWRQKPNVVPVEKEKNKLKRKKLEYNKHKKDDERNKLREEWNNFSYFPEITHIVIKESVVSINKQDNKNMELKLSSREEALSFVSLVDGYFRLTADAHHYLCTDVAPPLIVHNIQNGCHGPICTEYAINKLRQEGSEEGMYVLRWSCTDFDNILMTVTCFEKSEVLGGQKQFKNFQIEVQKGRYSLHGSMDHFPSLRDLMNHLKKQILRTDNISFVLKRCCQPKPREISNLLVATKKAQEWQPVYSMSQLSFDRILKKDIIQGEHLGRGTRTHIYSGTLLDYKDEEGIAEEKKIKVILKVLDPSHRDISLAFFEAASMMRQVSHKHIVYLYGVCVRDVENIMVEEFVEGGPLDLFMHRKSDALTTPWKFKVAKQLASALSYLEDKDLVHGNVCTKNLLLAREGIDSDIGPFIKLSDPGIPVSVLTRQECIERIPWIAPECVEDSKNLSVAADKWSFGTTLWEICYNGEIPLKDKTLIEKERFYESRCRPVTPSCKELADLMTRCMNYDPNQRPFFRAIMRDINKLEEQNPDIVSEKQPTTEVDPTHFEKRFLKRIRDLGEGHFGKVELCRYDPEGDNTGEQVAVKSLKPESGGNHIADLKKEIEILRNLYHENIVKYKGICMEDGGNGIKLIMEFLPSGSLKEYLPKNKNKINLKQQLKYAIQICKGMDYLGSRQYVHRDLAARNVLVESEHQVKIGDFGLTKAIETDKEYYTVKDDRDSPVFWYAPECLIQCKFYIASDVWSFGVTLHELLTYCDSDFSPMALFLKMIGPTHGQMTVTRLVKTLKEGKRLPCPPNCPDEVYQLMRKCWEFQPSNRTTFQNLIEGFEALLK
For data set [10], the system named is RAW264.7. The experiment in a line: Antiinflammatory activity in mouse RAW264.7 cells assessed as inhibition of LPS-stimulated IL-6 mRNA expression at 50 uM measured up to 6 hrs by SYBR green dye based RT-PCR analysis. The data set is classed as functional, cell-based.
Data set [11] concerns RAW264.7. The data set is described as follows: Antiinflammatory activity in mouse RAW264.7 cells assessed as inhibition of LPS-stimulated iNOS mRNA expression at 50 uM measured up to 12 hrs by SYBR green dye based RT-PCR analysis. The data set is classed as functional, cell-based.
In data set [12] the test system is RAW264.7. The experiment in a line: Antiinflammatory activity in mouse RAW264.7 cells assessed as inhibition of LPS-stimulated IL1beta production in mouse RAW264.7 cells at 50 uM pretreated for 1 hr followed by LPS addition measured after 24 hrs by enzyme immunoassay relative to control. Format: functional.
Data set [13] concerns RAW264.7. The data set is described as follows: Antiinflammatory activity in mouse RAW264.7 cells assessed as inhibition of LPS-stimulated iNOS expression at 12.5 to 50 uM pretreated for 1 hr followed by LPS-stimulation measured after 12 hrs by Western blot analysis. The data set is classed as functional, cell-based.
Data set [14] relates to RAW264.7. The data set is described as follows: Inhibition of LPS-induced c-FOS expression in mouse RAW264.7 cells at 50 uM pretreated for 1 hr followed by LPS-stimulation measured after 15 mins by Western blot analysis. The data set is classed as functional, cell-based.
The subject of data set [15] is RAW264.7. The data set is described as follows: Antiinflammatory activity in mouse RAW264.7 cells assessed as inhibition of LPS-stimulated COX2 expression at 12.5 to 50 uM pretreated for 1 hr followed by LPS-stimulation measured after 12 hrs by Western blot analysis. Format: functional, cell-based.
The target of data set [16] is Transcription factor Jun (Mus musculus) (UniProt P05627). The experiment in a line: Inhibition of LPS-induced c-JUN phosphorylation in mouse RAW264.7 cells at 50 uM pretreated for 1 hr followed by LPS-stimulation measured up to 30 mins by Western blot analysis. Format: cell-based.
Chain of Transcription factor Jun (Mus musculus) (P05627 whole entry): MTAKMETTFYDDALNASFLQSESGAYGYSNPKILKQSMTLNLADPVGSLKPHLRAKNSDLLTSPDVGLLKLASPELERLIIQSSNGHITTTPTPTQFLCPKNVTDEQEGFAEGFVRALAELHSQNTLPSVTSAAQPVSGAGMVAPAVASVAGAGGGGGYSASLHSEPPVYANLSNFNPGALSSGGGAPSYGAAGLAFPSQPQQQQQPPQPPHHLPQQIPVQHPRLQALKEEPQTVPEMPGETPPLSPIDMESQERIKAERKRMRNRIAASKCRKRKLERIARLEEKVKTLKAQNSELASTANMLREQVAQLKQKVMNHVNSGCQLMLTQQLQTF
The target in data set [17] is Tyrosine-protein kinase JAK1 (Mus musculus) (UniProt P52332). The data set is described as follows: Inhibition of JAK1 in LPS-stimulated mouse RAW264.7 cells assessed as reduction in STAT3 phosphorylation at […] residue pretreated for 1 hr followed by LPS-stimulation by Western blot analysis. Format: cell-based.
Data set [18] relates to RAW264.7. The experiment in a line: Antiinflammatory activity in mouse RAW264.7 cells assessed as inhibition of LPS-stimulated IL1beta production in mouse RAW264.7 cells pretreated for 1 hr followed by LPS addition measured after 24 hrs by enzyme immunoassay. Format: functional, cell-based.
Data set [19] has as its target Protein c-Fos (Mus musculus) (UniProt P01101). The data set is described as follows: Inhibition of LPS-induced c-FOS phosphorylation in mouse RAW264.7 cells at 50 uM pretreated for 1 hr followed by LPS-stimulation measured after 15 mins by Western blot analysis. The data set is classed as cell-based.
For data set [20], the system named is RAW264.7. The experiment in a line: Antiinflammatory activity in mouse RAW264.7 cells assessed as inhibition of LPS-stimulated IL-6 production pretreated for 1 hr followed by LPS addition measured after 24 hrs by enzyme immunoassay. Format: functional, cell-based.
The target in data set [21] is Transcription factor Jun (Homo sapiens) (UniProt P05412). The experiment in a line: Inhibition of AP1 (unknown origin) expressed in LPS-stimulated mouse RAW264.7 cells at 12.5 to 50 uM pretreated for 1 hr followed by LPS-stimulation measured after 18 hrs by luciferase reporter gene assay. Format: cell-based. (A reporter such as luciferase makes a cellular process visible.)
Chain of Transcription factor Jun (Homo sapiens) (P05412 whole entry): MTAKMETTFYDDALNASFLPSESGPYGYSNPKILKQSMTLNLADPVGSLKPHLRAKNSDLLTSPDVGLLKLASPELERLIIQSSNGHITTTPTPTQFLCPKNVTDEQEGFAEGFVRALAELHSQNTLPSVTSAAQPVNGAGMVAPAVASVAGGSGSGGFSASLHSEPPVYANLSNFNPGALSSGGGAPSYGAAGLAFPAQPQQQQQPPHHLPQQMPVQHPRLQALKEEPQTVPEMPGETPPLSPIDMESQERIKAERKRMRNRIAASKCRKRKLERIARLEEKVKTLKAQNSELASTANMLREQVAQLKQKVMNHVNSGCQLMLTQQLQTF

In data set [22] the test system is RAW264.7. The experiment in a line: Inhibition of NFKappaB (unknown origin) expressed in LPS-stimulated mouse RAW264.7 cells by luciferase reporter gene assay. Format: cell-based. The conditions noted are these: Homo sapiens.
For data set [23], the target named is MAP kinase p38 (Mus musculus) (UniProt P47811+O08911+Q9WUI1+Q9Z1B7). The experiment in a line: Inhibition of LPS-induced p38 phosphorylation in mouse RAW264.7 cells at 50 uM pretreated for 1 hr followed by LPS-stimulation measured up to 30 mins by Western blot analysis. The data set is classed as cell-based.
For data set [24], the target named is Tyrosine-protein kinase JAK1 (Mus musculus) (UniProt P52332). The data set is described as follows: Inhibition of JAK1 in LPS-stimulated mouse RAW264.7 cells assessed as reduction in STAT1 phosphorylation at S727 residue pretreated for 1 hr followed by LPS-stimulation by Western blot analysis. Format: cell-based.
Data set [25] relates to RAW264.7. The data set is described as follows: Inhibition of LPS-induced ERK phosphorylation in mouse RAW264.7 cells at 50 uM pretreated for 1 hr followed by LPS-stimulation measured up to 30 mins by Western blot analysis. The data set is classed as cell-based.
Data set [26] concerns RAW264.7. The data set is described as follows: Antiinflammatory activity in mouse RAW264.7 cells assessed as inhibition of LPS-induced nitric oxide production pretreated for 1 hr followed by LPS stimulation measured after 24 hrs by Griess assay. The data set is classed as functional, cell-based.
Data set [27] deals with RAW264.7. The experiment in a line: Antiinflammatory activity in mouse RAW264.7 cells assessed as inhibition of LPS-stimulated mPGES1 expression at 12.5 to 50 uM pretreated for 1 hr followed by LPS-stimulation measured after 12 hrs by Western blot analysis. Format: functional, cell-based.
Data set [28] concerns RAW264.7. The data set is described as follows: Antiinflammatory activity in mouse RAW264.7 cells assessed as inhibition of LPS-stimulated IL1beta mRNA expression at 50 uM measured up to 6 hrs by SYBR green dye based RT-PCR analysis. Format: functional, cell-based.
Data set [29] concerns RAW264.7. The experiment in a line: Antiinflammatory activity in mouse RAW264.7 cells assessed as inhibition of LPS-stimulated COX2 mRNA expression at 50 uM measured up to 12 hrs by SYBR green dye based RT-PCR analysis. Format: functional, cell-based.

Chain of Protein c-Fos (Mus musculus) (P01101 whole entry): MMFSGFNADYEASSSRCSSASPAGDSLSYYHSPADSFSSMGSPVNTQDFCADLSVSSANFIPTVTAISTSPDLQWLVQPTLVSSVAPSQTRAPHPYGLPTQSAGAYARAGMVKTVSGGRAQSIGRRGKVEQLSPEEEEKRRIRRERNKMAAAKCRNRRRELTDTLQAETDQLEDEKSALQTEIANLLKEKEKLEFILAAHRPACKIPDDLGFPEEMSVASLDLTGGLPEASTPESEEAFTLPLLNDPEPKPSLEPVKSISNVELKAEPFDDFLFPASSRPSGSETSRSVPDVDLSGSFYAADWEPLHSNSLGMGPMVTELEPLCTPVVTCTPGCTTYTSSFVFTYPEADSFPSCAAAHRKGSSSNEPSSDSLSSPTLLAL

A word on the IC50: it is the concentration that gives 50% inhibition. Take `COc1cc(/C=C/C(=O)NCCc2c[nH]c3ccc(O)c(-c4c(O)ccc5[nH]cc(CCNC(=O)/C=C/c6ccc(O)cc6)c45)c23)ccc1O`: the results for the IC50 in data set [1] and in data set [4] were greater than 200 µM and greater than 100 µM, respectively. Besides, the Activity result in [2] and in data set [3] was “Non-Toxic” throughout.
Turning to `CC(=O)OC[C@H]1O[C@@H](O[C@H](C)[C@H]2C[C@H](O)[C@H]3[C@@H]4CCC5=CC(=O)CC[C@]5(C)[C@H]4CC[C@@]32C)[C@H](O)[C@@H](O)[C@@H]1O[C@@H]1O[C@H](CO)[C@@H](O)[C@H](O)[C@H]1O`, the IC50 in data set [1] is greater than 200 µM; in data set [4], greater than 100 µM. Besides, the Activity entry in data set [2] and in data set [3] was “Non-Toxic” each time.
As to `COc1cc(/C=C/C(=O)NCCc2c[nH]c3ccc(O)c(-c4c(O)ccc5[nH]cc(CCNC(=O)/C=C/c6ccc(O)c(OC)c6)c45)c23)ccc1O`, the IC50 in data set [1] is greater than 200 µM; in [4], greater than 100 µM. In addition, the Activity entry in [2] and in data set [3] was “Non-Toxic” throughout.
Consider `O=C(/C=C/c1ccc(O)cc1)NCCc1c[nH]c2ccc(O[C@@H]3O[C@H](CO)[C@@H](O)[C@H](O)[C@H]3O)cc12`, for which the results for the 50% inhibitory concentration (IC50) in data set [1] and in data set [4] were 135 µM and 89.8 µM, respectively. In addition, the Activity result in data set [2] and in [3] was “Non-Toxic” in each case.
Turning to `COc1ccc(C[C@H]2COC(=O)[C@]2(O)Cc2ccc(O[C@@H]3O[C@H](CO)[C@@H](O)[C@H](O)[C@H]3O)c(OC)c2)cc1OC`, the 50% inhibitory concentration (IC50) in [1] is greater than 200 µM; in data set [4], greater than 100 µM. Also, the Activity result in [2] and in data set [3] was “Non-Toxic” in each case.
Regarding `O=C(/C=C/c1ccc(O)cc1)NCCc1c[nH]c2ccc(O)c(-c3c(O)ccc4[nH]cc(CCNC(=O)/C=C/c5ccc(O)cc5)c34)c12`, the IC50 in data set [1] was greater than 200 µM; in data set [4], greater than 100 µM. The Activity entry in data set [2] and in data set [3] was “Non-Toxic” throughout.
For the compound `COc1cc(C[C@@H](CO)[C@H](CO)Cc2ccc(O)c(OC)c2)ccc1O` [(+)-SECOISOLARICIRESINOL], the IC50 was greater than 200 µM in [1] and greater than 100 µM in data set [4]. Also, the Activity entry in data set [2] and in data set [3] was “Non-Toxic” in each case.
Take `CC(=N)NCCCC[C@H](N)C(=O)O` [L-NIL]: the IC50 in data set [1] was 28.3 µM.
Broadly, the inhibition is the share of the control response that was lost under treatment. As to `COc1cc(/C=C/C(=O)NCCc2c[nH]c3ccc(O)cc23)ccc1O` [N-FERULOYL SEROTONIN], the inhibition entry in data set [5], in [6], in data set [16] and in [22] was “inactive” throughout. For the same compound, the IC50 in data set [1] was 123 µM; in [4], 14.7 µM. For the same compound, the inhibition entry in data set [7], in data set [10], in [11], in data set [13], in data set [14] and in data set [15] was “Active” in each case. The inhibition result in data set [19], in data set [21], in [23], in data set [25], in [27] and in data set [28] was “Active” each time. In addition, in [29], the inhibition result was “Active”. The inhibition at 50 µM in data set [8] was found to be 25.1%; in data set [12] it was 52.2%. Moreover, the inhibition entry in [9], in data set [17], in data set [18], in data set [20], in data set [24] and in data set [4] was “Dose-dependent effect” in each case. Besides, the inhibition result in [26] was “Dose-dependent effect”. The Activity entry in [2] and in data set [3] was “Non-Toxic” in each case.
On to `O=C(/C=C/c1ccc(O)cc1)NCCc1c[nH]c2ccc(O)cc12` [N-P-COUMAROYL SEROTONIN], for which the concentration for half-maximal inhibition (IC50) in data set [1] came to 164 µM; in [4], 43.2 µM. The Activity result in data set [2] and in data set [3] was “Non-Toxic” each time.
